Measurements as given in patent US20240352016A1, “A CYCLIN-DEPENDENT KINASE INHIBITOR” (TAIZHOU EOC PHARMA CO., LTD., priority 2021, published 2024).
Counter-ions that a name gives are not always drawn.

target: T1, CDK7/Cyclin H/MAT1 (Homo sapiens, UniProt P50613); test: CDK kinase activity mobility shift assay (MSA); assay type: biochemical; conditions: The CDK may be CDK7; mobility shift assay, 2 mM ATP, 3 nM CDK/Cyclin, 27° C. for 40 min; read-out: IC50 (CDK inhibition)
T1 construct: made in house; host or cells: insect cell
Method: Human CDKs, cyclins and other partner proteins were expressed in insect cell, purified individually, reconstituted and then purified to homogeneity before being used for kinase activity assay.
Kinase activity of CDKs were determined by mobility shift assay (MSA), in which the formation of a phosphorylated fluorescence-labelled peptide in reaction mixture was monitored through capillary electrophoresis in a microfluidic environment. […] The mixtures were incubated at 27° C. for 40 min before being quenched with 4 μl 80 mM EDTA, then read on a LabChip EZ Reader II (Caliper Life Science). IC50 of compound for CDKs was calculated by Prism (GraphPad) using a four-parameter nonlinear curve fit.

T1 sequence (P50613 whole entry): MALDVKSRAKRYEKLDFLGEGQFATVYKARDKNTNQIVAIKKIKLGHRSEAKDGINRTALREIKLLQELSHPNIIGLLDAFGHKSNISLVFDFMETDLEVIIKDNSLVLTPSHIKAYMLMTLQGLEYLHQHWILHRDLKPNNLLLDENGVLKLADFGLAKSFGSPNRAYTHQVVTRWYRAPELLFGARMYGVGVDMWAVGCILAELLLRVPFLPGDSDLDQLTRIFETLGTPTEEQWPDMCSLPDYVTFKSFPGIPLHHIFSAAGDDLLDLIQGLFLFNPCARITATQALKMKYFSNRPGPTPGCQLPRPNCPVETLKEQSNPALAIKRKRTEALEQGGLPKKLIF
T1 sequence (P51946 whole entry partner): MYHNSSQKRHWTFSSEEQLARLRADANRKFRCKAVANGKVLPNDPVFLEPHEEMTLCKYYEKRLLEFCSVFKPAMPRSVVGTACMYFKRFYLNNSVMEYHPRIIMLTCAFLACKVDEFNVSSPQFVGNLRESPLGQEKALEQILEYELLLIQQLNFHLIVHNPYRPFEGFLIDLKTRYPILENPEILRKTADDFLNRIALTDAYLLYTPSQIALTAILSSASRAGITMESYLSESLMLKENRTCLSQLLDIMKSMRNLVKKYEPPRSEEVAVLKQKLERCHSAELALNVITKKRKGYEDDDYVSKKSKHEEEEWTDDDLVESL
T1 sequence (P51948 whole entry partner): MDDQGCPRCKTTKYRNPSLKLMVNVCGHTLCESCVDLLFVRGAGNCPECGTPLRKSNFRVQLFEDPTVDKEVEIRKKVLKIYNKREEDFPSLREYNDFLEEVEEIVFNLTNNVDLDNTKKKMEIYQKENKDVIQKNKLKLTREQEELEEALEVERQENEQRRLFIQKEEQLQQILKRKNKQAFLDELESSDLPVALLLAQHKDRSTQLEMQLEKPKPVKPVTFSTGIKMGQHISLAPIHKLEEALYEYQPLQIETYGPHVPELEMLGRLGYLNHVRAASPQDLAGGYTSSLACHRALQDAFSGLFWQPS

Row | SMILES | IC50
1 | CC(C)n1cnc2c(NCc3ccccc3-n3cccn3)nc(N3CCC(N(C)C)CC3)nc21 [Compound I-26, N-(2-(1H-pyrazol-1-yl)benzyl)-2-(4-(dimethylamino)piperidin-1-yl)-9-isopropyl-9H-purin-6-amine] | < 100 nM
2 | CC(C)n1cnc2c(NCc3ccccc3-n3cccn3)nc(N3CCC(C(=O)N(C)C)CC3)nc21 [Compound I-15, 1-(6-((2-(1H-pyrazol-1-yl)benzyl)amino)-9-isopropyl-9H-purin-2-yl)-N,N-dimethylpiperidine-4-carboxamide] | > 1000 nM
3 | CC(C)n1cnc2c(NCc3ccccc3-n3cccn3)nc(N3CCC(C(N)=O)CC3)nc21 [Compound I-38, 1-(6-((2-(1H-pyrazol-1-yl)benzyl)amino)-9-isopropyl-9H-purin-2-yl)piperidine-4-carboxamide] | 100 to 500 nM
4 | CC(C)c1n[nH]c2c(NCc3ccccc3-n3cccn3)nc(NC3CCNCC3)nc12 [II-2, N7-(2-(1H-pyrazol-1-yl)benzyl)-3-isopropyl-N5-(piperidin-4-yl)-1H-pyrazolo[4,3-d]pyrimidine-5,7-diamine] | < 100 nM
5 | CC(C)n1cnc2c(NCc3ccccc3-n3cccn3)nc(NC3CN4CCC3CC4)nc21 (stereo not drawn) [Compound I-33, N6-(2-(1H-pyrazol-1-yl)benzyl)-9-isopropyl-N2-(quinuclidin-3-yl)-9H-purine-2,6-diamine] | 100 to 500 nM
6 | NC1CCN(c2nc(NCc3ccccc3-n3cccn3)c3ncn(C4CCCC4)c3n2)CC1 [Compound I-25, N-(2-(1H-pyrazol-1-yl)benzyl)-2-(4-aminopiperidin-1-yl)-9-cyclopentyl-9H-purin-6-amine] | < 100 nM
7 | CC(C)n1cnc2c(NCc3ccccc3-n3cccn3)nc(N3CCC(O)(Cn4cc(N)cn4)CC3)nc21 [Compound I-31, 1-(6-((2-(1H-pyrazol-1-yl)benzyl)amino)-9-isopropyl-9H-purin-2-yl)-4-((4-amino-1H-pyrazol-1-yl)methyl)piperidin-4-ol] | 100 to 500 nM

Further lines, results first:

Row | IC50 | SMILES
8 | > 1000 nM | CC(C)n1cnc2c(NCc3ccccc3-n3cccn3)nc(NC(=O)C3CCNCC3)nc21 [Compound I-21, N-(6-((2-(1H-pyrazol-1-yl)benzyl)amino)-9-isopropyl-9H-purin-2-yl)piperidine-4-carboxamide]
9 | 500 to 1000 nM | CC(C)n1cnc2c(NCc3ccccc3-n3cccn3)nc(N3CCC(CO)CC3)nc21 [Compound I-40, (1-(6-((2-(1H-pyrazol-1-yl)benzyl)amino)-9-isopropyl-9H-purin-2-yl)piperidin-4-yl)methanol]
10 | 100 to 500 nM | CC(C)n1cnc2c(NCc3ccccc3-n3cccn3)nc(N3CCC(CN)C3)nc21 (stereo not drawn) [Compound I-34, N-(2-(1H-pyrazol-1-yl)benzyl)-2-(3-(aminomethyl)pyrrolidin-1-yl)-9-isopropyl-9H-purin-6-amine]
11 | 100 to 500 nM | CC(C)n1cnc2c(NCc3ccccc3-n3cccn3)nc(N3CCC(CN)CC3)nc21 [Compound I-41, N-(2-(1H-pyrazol-1-yl)benzyl)-2-(4-(aminomethyl)piperidin-1-yl)-9-isopropyl-9H-purin-6-amine]
12 | 100 to 500 nM | CC(C)n1cnc2c(NCc3ccccc3-n3cccn3)nc(N3CCC(O)CC3)nc21 [Compound I-37, 1-(6-((2-(1H-pyrazol-1-yl)benzyl)amino)-9-isopropyl-9H-purin-2-yl)piperidin-4-ol]
13 | 100 to 500 nM | CC(C)n1cnc2c(NCc3ccccc3-n3cccn3)nc(NC3CCNCC3)nc21 [Compound I-30, N6-(2-(1H-pyrazol-1-yl)benzyl)-9-isopropyl-N2-(piperidin-4-yl)-9H-purine-2,6-diamine hydrochloride]
14 | < 100 nM | CC(C)n1cnc2c(NCc3ccccc3-n3cccn3)nc(N3CC[C@H](N)C3)nc21 [Compound I-9, (S)—N-(2-(1H-pyrazol-1-yl)benzyl)-2-(3-aminopyrrolidin-1-yl)-9-isopropyl-9H-purin-6-amine]
15 | 100 to 500 nM | CC(C)n1cnc2c(NCc3ccccc3-n3cccn3)nc(N[C@H]3CCCNC3)nc21 [Compound I-13, (S)-N6-(2-(1H-pyrazol-1-yl)benzyl)-9-isopropyl-N2-(piperidin-3-yl)-9H-purine-2,6-diamine]
